Read-outs that look alike come from different tables or passages of the source.
Tests used:
C. parapsilosis [1] = conditions: C. parapsilosis MMX 2323 (ATCC 22019), cited from earlier work
C. tropicalis = assay: Broth microdilution MIC, yeast (Example 5); assay type: cell-based; conditions: FLUR
Protocol: (§1) Test and Comparator Agents: The test agents were stored at room temperature until assayed. All test agents were suspended and diluted in 100% dimethylsulfoxide (DMSO), and were ultimately tested at a final concentration of 0.06-64 μg/mL. The stock solutions were allowed to stand for at least 1 hr prior to use to auto-sterilize.
(§2) The susceptibility of yeast isolates was determined by broth microdilution in RPMI medium (HyClone Laboratories, Logan, UT; Lot No. AZC184041B) buffered with 0.165 M MOPS (Calbiochem, Billerica, MA; Lot No. 2694962). The pH of the medium was adjusted to 7.0 with 1 N NaOH, sterile filtered using a 0.2 μm PES filter, and stored at 4° C. until used.
(§3) Broth Microdilution MC Testing (Aerobic Bacteria and Yeast): The broth microdilution assay method employed for the susceptibility testing of aerobic bacteria (excluding N. gonorrhoeae which was evaluated by agar dilution) and yeast essentially followed the procedures described by CLSI (3, 4, 7, 8) and employed automated liquid handlers to conduct serial dilutions and liquid transfers. Automated liquid handlers included the Multidrop 384 (Labsystems, Helsinki, Finland) and Biomek 2000 (Beckman Coulter, Fullerton CA). The wells in columns 2-12 in standard 96-well microdilution plates (Costar 3795) were filled with 150 μl of the correct diluent. These would become the ‘mother plates’ from which ‘daughter’ or test plates would be prepared. The drugs (300 μL at 40× the desired top concentration in the test plates) were dispensed into the appropriate well in Column 1 of the mother plates. The Biomek 2000 was used to make serial two-fold dilutions through Column 11 in the “mother plate”. The wells of Column 12 contained no drug and ultimately served as the organism growth control wells.
(§4) The daughter plates were loaded with 185 μL per well of the appropriate test media using the Multidrop 384. The daughter plates were prepared using the Biomek FX which transferred 5 μL of drug solution from each well of a mother plate to the corresponding well of the correct daughter plate in a single step.
(§5) A standardized inoculum of each organism was prepared per CLSI methods (3, 7). Isolated colonies of each test isolate were picked from the primary plate and a suspension was prepared to equal a 0.5 McFarland turbidity standard. Standardized suspensions were then diluted […] (1:100 for yeast, 1:20 for bacteria). After dilution, the inoculum suspensions were then transferred to compartments of sterile reservoirs divided by length (Beckman Coulter), and the Biomek 2000 was used to inoculate all plates. Daughter plates were placed on the Biomek 2000 in reverse orientation so that plates were inoculated from low to high drug concentration.
(§6) The Biomek 2000 delivered 10 μL of standardized inoculum into each well of the appropriate daughter plate for an additional 1:20 dilution. […] The final concentration of DMSO (if used as a solvent) in the test well was 2.5%.
(§7) Plates were stacked 4 high, covered with a lid on the top plate, placed into plastic bags, and incubated at 35° C. for approximately 24-48 hr for all yeast isolates and 16-24 hr for aerobic bacteria. Plates were viewed from the bottom using a plate viewer. […] MIC endpoints for the test agents and control compounds were read per CLSI criteria (3, 7).

C. albicans = assay: Broth microdilution MIC, yeast (Example 5); assay type: cell-based; conditions: Sensitive
Protocol: as §1, §2, §3, §4, §5, §6, §7

C. glabrata = assay: Broth microdilution MIC, yeast (Example 5); assay type: cell-based; conditions: FLUR
Protocol: as §1, §2, §3, §4, §5, §6, §7

C. parapsilosis [2] = assay: Broth microdilution MIC, yeast (Example 5); assay type: cell-based
Protocol: as §1, §2, §3, §4, §5, §6, §7

C[C@@H]1[C@H](O)[C@@H](C)/C=C/C=C/C=C/C=C/C=C/C=C/C=C/[C@H](O[C@@H]2O[C@H](C)[C@@H](O)[C@H](N)[C@@H]2O)C[C@@H]2O[C@](O)(C[C@@H](O)C[C@@H](O)[C@H](O)CC[C@@H](O)C[C@@H](O)CC(=O)O[C@H]1C)C[C@H](O)[C@H]2C(=O)O [Amphotericin B, reference compound]
0.5 to 4 µg/mL: CLSI QC range of MIC (C. parapsilosis [1]; 48 hr)
1 µg/mL: MIC (C. tropicalis; C. tropicalis MMX 7247, 48 hr) | MIC (C. tropicalis; C. tropicalis MMX 7248, 48 hr) | MIC (C. glabrata; C. glabrata MMX 7086, 48 hr) | MIC (C. glabrata; C. glabrata MMX 7318, 48 hr) | MIC (C. parapsilosis [2]; C. parapsilosis MMX 2323 (ATCC 22019), QC, 48 hr) | MIC (C. parapsilosis [2]; C. parapsilosis MMX 7370, FLUR, 48 hr)
0.25 µg/mL: MIC (C. albicans; C. albicans MMX 7055, 24 hr)
0.25 to 2 µg/mL: CLSI QC range of MIC (C. parapsilosis [1]; 24 hr)
0.5, 0.5 μg/mL: MIC (C. tropicalis; C. tropicalis MMX 7360, 24 hr) | MIC (C. tropicalis; C. tropicalis MMX 7360, 48 hr) | MIC (C. albicans; C. albicans MMX 7039, 24 hr) | MIC (C. albicans; C. albicans MMX 7039, 48 hr) | MIC (C. parapsilosis [2]; C. parapsilosis MMX 7555, FLUR, 24 hr) | MIC (C. parapsilosis [2]; C. parapsilosis MMX 7555, FLUR, 48 hr)
0.5 µg/mL: MIC (C. tropicalis; C. tropicalis MMX 7247, 24 hr) | MIC (C. tropicalis; C. tropicalis MMX 7248, 24 hr) | MIC (C. albicans; C. albicans MMX 7055, 48 hr) | MIC (C. glabrata; C. glabrata MMX 7086, 24 hr) | MIC (C. glabrata; C. glabrata MMX 7318, 24 hr) | MIC (C. parapsilosis [2]; C. parapsilosis MMX 2323 (ATCC 22019), QC, 24 hr) | MIC (C. parapsilosis [2]; C. parapsilosis MMX 7370, FLUR, 24 hr)

— patent US20240285571A1, “METHODS OF TREATING BONE INFECTIONS” (MICROBION CORPORATION, priority 2020, published 2024)
